Assay results published in US7186830B2, “Tricyclic 2-pyrimidone compounds useful as HIV reverse transcriptase inhibitors” (Bristol-Myers Squibb Company, priority 2002, dated 2007).

melting point	SMILES
277.3 to 278.1 °C (dec.)	Cc1nc2c(c(=O)[nH]1)Nc1ccc(C#N)cc1C2(COC(C)C)C(F)(F)F (centres unmarked) [Example 7, 8-Cyano-10-(isopropoxymethyl)-2-methyl-10-(trifluoromethyl)-5,10-dihydropyrimido[5,4-b]quinolin-4(3H)-one]
> 280 °C	N#Cc1ccc2c(c1)C(CCC1CC1)(C(F)(F)F)c1nc[nH]c(=O)c1N2 (centres unmarked) [Example 9, 8-Cyano-10-(2-cyclopropylethyl)-10-(trifluoromethyl)-5,10-dihydropyrimido[5,4-b]quinolin-4(3H)-one]
